Reference: US20130023589A1, “MEDICATION FOR THERAPY OR PROPHYLAXIS OF ASTHMA” (priority 2011, published 2013)

Tests used:
[1] = test system: primary human bronchial smooth cells (BSMC); assay: QCM Chemotaxis cell migration assay of BSMCs cocultured with DBP-treated BEAS-2B cells; assay type: cell-based; details: 5 μM ginger compound, then coculture with DBP-BEAS for 24 hours; groups A1-7 to A1-10, FIG. 6
Description: (§1) With reference to FIG. 5, the plasticizers-treated bronchial smooth muscle cells are prepared by processing two steps. In the first step, a plasticizer-treated bronchial epithelial cell line is obtained by harvesting a human bronchial epithelial cell line in a chemical plasticizer at 37±1° C. for 6 hours, with each 100 mm incubating plate receiving 2×10^6 cells and with the treatment of the chemical plasticizer to induce the excretion of proinflammatory cytokines in the human bronchial epithelial cell line, such as IL-8 and RANTES, followed by removing the chemical plasticizer from the human bronchial epithelial cell line, reincubating the human bronchial epithelial cell lines in a culturing medium for 24 hours, and finally collecting the supernatants to obtain plasticizers-treated bronchial epithelial cells of the present invention. In specification, the chemical plasticizer of the present invention can be selected from a group of butylbenzyl phthalate (BBP), bis-(2-ethylhexyl) phthalate (BEHP), dibutyl phthalate (DBP) and diethyl phthalate (DEP), and with the concentration of 0.1 to 5.0 μM.
(§2) In the second step, the plasticizer-treated bronchial epithelial cells obtained from the first step are coincubated with a human bronchial smooth muscle cell line to obtain the plasticizer-treated bronchial smooth muscle cells of the present invention. […]
With reference of TABLE 1, the BSMCs are previously seeded into a migration chamber for 24 hours, with the BSMCs placing on the surface of the migration chamber, and randomly assigned into 10 groups including A1-1 to A1-10 to carry out various treatments between 10 groups. […] After the treatments, the BSMCs of the groups A1-1 to A1-10 are analyzed by a QCM Chemotaxis […] cell migration assay system (Chemicon, Temecula, Calif.; Millipore Corp, Bedford, Mass.), with the BSMCs in each group being stained, lysed and finally quantified on a microplate at 560 nm. […]

[2] = test system: primary human bronchial smooth cells (BSMC); assay: WST-1 cell proliferation assay of BSMCs cocultured with DBP-treated BEAS-2B cells; assay type: cell-based; details: 5 μM ginger compound for 1 hour, then coculture with DBP-BEAS for 72 hours; groups A2-7 to A2-10, FIG. 7
Description: as §1, §2
Additionally, with reference to TABLE 2, the BSMCs are placed and preincubated in 96-well culture plates for 24 hours, followed by randomly assigning into 10 groups including A2-1 to A2-10 to carry out various treatments between 10 groups. […] After the various treatments of each group, the proliferation degrees of BSMCs in each group are determined by Premixed WST-1 Cell Proliferation Reagent (Clontech Laboratories Inc., Mountain View, Calif.).

Row | SMILES | plasticizer-induced airway remodeling: migration of BSMCs [1] | plasticizer-induced airway remodeling: proliferation of BSMCs [2]
1 | CCCCCCCCC[C@H](O)CC(=O)CCc1ccc(O)c(OC)c1 [[10]-gingerol] | sufficient in suppressing | sufficient in suppressing
2 | CCCCC[C@H](O)CC(=O)CCc1ccc(O)c(OC)c1 [[6]-gingerol] | sufficient in suppressing | sufficient in suppressing
3 | CCCCC/C=C/C(=O)CCc1ccc(O)c(OC)c1 [[6]-shogaol] | sufficient in suppressing | sufficient in suppressing
